Measured values reported in ChEMBL document CHEMBL1201862, “PubChem BioAssay data set” (2004).
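Test compounds were applied to cells in 96-well plates for 48 hours at 5 doses. At the GI50, growth is halved.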 The source made the active and inactive calls. Rule as the data show it: active = GI50 up to about 1.1 µM and inactive = higher.

Assays:
Test in all cases: growth of human tumour cells (NCI), 48 h
[1] = test system: A549
[2] = test system: ACHN
[3] = test system: CCRF-CEM
[4] = test system: COLO 205
[5] = test system: HCT-116
[6] = test system: HL-60
[7] = test system: HOP-62
[8] = test system: Hs-578T
[9] = test system: K562
[10] = test system: KM12
[11] = test system: LOX IMVI
[12] = test system: MOLT-4
[13] = test system: Malme-3M
[14] = test system: OVCAR-4
[15] = test system: SF-295
[16] = test system: SF-539
[17] = test system: SK-MEL-2
[18] = test system: SK-MEL-5
[19] = test system: U-251
[20] = test system: UACC-62

How did the GI50 [1] turn out when `O=C(CCN1CCCCC1)N1CCc2c([nH]c3ccccc23)C1c1cccnc1` (stereo not given) was run?
The GI50 was > 93.3 µM (inactive).

What about the GI50 [2] of the same molecule?
Its GI50 is > 85.5 µM (inactive).

What about the GI50 [3] of the same molecule?
Its GI50 is 57.4 µM (inactive).

What about the GI50 [4] of the same molecule?
The GI50 was 21.7 µM (inactive).

What about the GI50 [5] of the same molecule?
Its GI50 is 61.8 µM (inactive).

And the GI50 [6]?
Its GI50 is 41.2 µM (inactive).

What about the GI50 [7] of the same molecule?
The GI50 was > 82.2 µM (inactive).

And the GI50 [8]?
Its GI50 is 66.4 µM (inactive).

What about the GI50 [9] of the same molecule?
The GI50 was 30.8 µM (inactive).

And the GI50 [10]?
Its GI50 is > 100 µM (inactive).

And the GI50 [11]?
The GI50 was 40.6 µM (inactive).

And the GI50 [12]?
The GI50 was 47.1 µM (inactive).

And the GI50 [13]?
The GI50 was 20.8 µM (inactive).

What about the GI50 [14] of the same molecule?
Its GI50 is > 91 µM (inactive).

What about the GI50 [15] of the same molecule?
The GI50 was 37.5 µM (inactive).

And the GI50 [16]?
The GI50 was 61.4 µM (inactive).

And the GI50 [17]?
Its GI50 is 18.3 µM (inactive).

What about the GI50 [18] of the same molecule?
Its GI50 is 21.3 µM (inactive).

And the GI50 [19]?
Its GI50 is 80 µM (inactive).

What about the GI50 [20] of the same molecule?
Its GI50 is 20.7 µM (inactive).

How did the GI50 [1] turn out when `CCCCN1C(=O)CC2[C@@H]3CCc4cc(OC)ccc4C3CC[C@]2(C)C1=O` (stereo not given in full) was run?
The GI50 was > 10 µM (inactive).

And the GI50 [2]?
Its GI50 is > 10 µM (inactive).

And the GI50 [3]?
The GI50 was > 10 µM (inactive).

And the GI50 [4]?
The GI50 was > 10 µM (inactive).

And the GI50 [5]?
The GI50 was > 10 µM (inactive).

And the GI50 [6]?
The GI50 was 5.04 µM (inactive).

What about the GI50 [7] of the same molecule?
The GI50 was > 10 µM (inactive).

And the GI50 [8]?
The GI50 was > 10 µM (inactive).

What about the GI50 [9] of the same molecule?
The GI50 was 7.93 µM (inactive).

And the GI50 [10]?
The GI50 was > 10 µM (inactive).

What about the GI50 [11] of the same molecule?
Its GI50 is > 10 µM (inactive).

What about the GI50 [12] of the same molecule?
Its GI50 is > 10 µM (inactive).

And the GI50 [13]?
Its GI50 is > 10 µM (inactive).

What about the GI50 [14] of the same molecule?
The GI50 was > 10 µM (inactive).

What about the GI50 [15] of the same molecule?
The GI50 was > 10 µM (inactive).

What about the GI50 [16] of the same molecule?
Its GI50 is > 10 µM (inactive).

What about the GI50 [17] of the same molecule?
The GI50 was > 10 µM (inactive).

And the GI50 [18]?
The GI50 was > 10 µM (inactive).

What about the GI50 [19] of the same molecule?
The GI50 was > 10 µM (inactive).

And the GI50 [20]?
Its GI50 is > 10 µM (inactive).

`O=C1c2cc([N+](=O)[O-])sc2C(=O)c2ccsc21` was tested. Which GI50 [1] did it give?
The GI50 was 1.83 µM (inactive).

What about the GI50 [2] of the same molecule?
Its GI50 is 0.281 µM (active).

And the GI50 [3]?
Its GI50 is 0.075 µM (active).

What about the GI50 [4] of the same molecule?
The GI50 was 0.525 µM (active).

What about the GI50 [5] of the same molecule?
The GI50 was 0.293 µM (active).

What about the GI50 [6] of the same molecule?
Its GI50 is < 0.01 µM (active).

And the GI50 [7]?
The GI50 was 0.227 µM (active).

And the GI50 [8]?
The GI50 was 0.618 µM (active).

What about the GI50 [9] of the same molecule?
The GI50 was 0.0216 µM (active).

And the GI50 [10]?
The GI50 was 0.407 µM (active).

What about the GI50 [11] of the same molecule?
Its GI50 is 0.0687 µM (active).

What about the GI50 [12] of the same molecule?
Its GI50 is 0.215 µM (active).

And the GI50 [13]?
The GI50 was 0.164 µM (active).

What about the GI50 [14] of the same molecule?
The GI50 was 0.48 µM (active).

And the GI50 [15]?
Its GI50 is 0.354 µM (active).

What about the GI50 [16] of the same molecule?
Its GI50 is 0.365 µM (active).

And the GI50 [17]?
Its GI50 is 1.06 µM (active).

What about the GI50 [18] of the same molecule?
Its GI50 is 0.17 µM (active).

What about the GI50 [19] of the same molecule?
Its GI50 is 0.203 µM (active).

And the GI50 [20]?
Its GI50 is 0.204 µM (active).
